Tested on: Vcap cells
Test: Dihydrotestosterone (DHT) mediated XTT cell proliferation assay for screening AR antagonists using Vcap cells
Format: cell-based
Settings: Homo sapiens, 240 h, in the presence of 0.2 nM DHT, XTT readout on Day 10, IC50 curves from 8 concentrations
Method: Dihydrotestosterone (DHT) Mediated XTT Cell Proliferation Assay for Screening AR Antagonists Using Vcap cells
The Vcap cells (4×10^6 cells) were seeded in a T-75 flask containing DMEM with 15% FBS. After 72 hours, the media was removed; the cells were washed once and replaced with phenol red free DMEM containing 8% charcoal stripped serum. Then, the cells were starved in phenol red free DMEM with 8% charcoal stripped serum for 5 days. Following the starvation, the cells were harvested and seeded in 96 well plates (10×10^3 cells per well) in phenol red free DMEM with 8% charcoal stripped serum (Day 0). The cells were allowed to settle and on Day 4 they were treated with different concentrations of the compound (30 μM, 10 μM, 1 μM, 500 nM, 100 nM, 10 nM, 1 nM, 0.1 nM) in the presence of 0.2 nM DHT. DHT alone and a DMSO controls were also included. All treatments were done in triplicate. The drugs were replenished on Day 7 and the cells were allowed to grow for another 72 hours. On Day 10, the experiment was terminated by adding the XTT reagent (2,3-bis[2-methoxy-4-notro-5-sulfophenyl]-2H-tetrazolium-5-caboxyanilide inner salt) dissolved in Phenol red free DMEM without serum. The cells with the XTT reagents were incubated inside the CO2 incubator for 3-4 hours for color development; after which the readings were taken at […] using a spectramax Gemini plate reader.
Data fitting: The IC50 curves for the 8 compound concentrations were calculated with GraphPad Prism software using the sigmoidal dose-response function. (Graphpad Software, San Diego, Calif., USA).

| Compound | IC50 [nM] |
| --- | --- |
| N#Cc1ccc(N2C(=O)N(c3ccc(C(=O)N[C@@H]4CCOC4)c(F)c3)[C@@H]3CCCC[C@H]32)cc1C(F)(F)F (mixture of isomers) [Example 34, 4-((3aR,7aR)-3-(4-cyano-3-(trifluoromethyl)phenyl)-2-oxooctahydro-1H-benzo[d]imidazol-1-yl)-2-fluoro-N—((R)-tetrahydrofuran-3-yl)benzamide and 4-((3aS,7aS)-3-(4-cyano-3-(trifluoromethyl)phenyl)-2-oxooctahydro-1H-benzo[d]imidazol-1-yl)-2-fluoro-N—((R)-tetrahydrofuran-3-yl)benzamide] | 317 |
| CNC(=O)c1ccc(N2C(=O)N(c3ccc(C#N)c(C(F)(F)F)c3)[C@@H]3CCCC[C@H]32)cc1F (racemic) [Example 1, Trans-4-{3-[4-cyano-3-(trifluoromethyl)phenyl]-2-oxo-octahydro-1H-1,3-benzodiazol-1-yl}-2-fluoro-N-Methylbenzamide (±)] | 245 |
| N#Cc1ccc(N2C(=O)N(c3ccc(C#N)c(C(F)(F)F)c3)[C@@H]3CCCC[C@H]32)cc1C(F)(F)F (racemic) [Example 2, Trans-4,4′-(2-oxohexahydro-1H-benzo[d]imidazole-1,3(2H)-diyl)bis(2-(trifluoromethyl)benzonitrile) (±)] | 240 |
| N#Cc1ccc(N2C(=O)N(c3ccoc3)[C@@H]3CCCC[C@H]32)cc1C(F)(F)F (racemic) [Example 3, Trans-4-(3-(furan-3-yl)-2-oxoocta-hydro-1H-benzo[d]imidazol-1-yl)-2-trifluoromethyl)benzonitrile (±)] | 1520 |
| N#Cc1ccc(N2C(=O)N(c3ccncc3)[C@@H]3CCCC[C@H]32)cc1C(F)(F)F (racemic) [Example 4, Trans-4-(2-oxo-3-(pyridin-4-yl)octahydro-1H-benzo[d]imidazol-1-yl)-2-(trifluoromethyl)benzonitrile (±)] | 1040 |
| N#Cc1ccc(N2C(=O)N(c3ccccc3)[C@@H]3CCCC[C@H]32)cc1C(F)(F)F (racemic) [Example 5, Trans-4-(2-oxo-3-phenyloctahydro-1H-benzo[d]imidazol-1-yl)-2-(trifluoromethyl)benzonitrile (±)] | 1020 |
| CCOC(=O)c1ccc(N2C(=O)N(c3ccc(C#N)c(C(F)(F)F)c3)[C@@H]3CCCC[C@H]32)cc1F (racemic) [Example 6, Trans-ethyl-4-(3-(4-cyano-3-trifluoromethyl)phenyl)-2-oxooctahydro-1H-benzo[d]imidazol-1-yl)-2-fluorobenzoate (±)] | > 10000 |
| CCOC(=O)c1ccc(N2C(=O)N(c3ccc(C#N)c(C(F)(F)F)c3)[C@@H]3CCCC[C@H]32)s1 (racemic) [Example 8, Trans-ethyl-5-(3-(4-cyano-3-(trifluoromethyl)phenyl)-2-oxooctahydro-1H-benzo[d]imidazol-1-yl)thiophene-2-carboxylate (±)] | > 10000 |
| N#Cc1ccc(N2C(=O)N(c3cccc(S(N)(=O)=O)n3)[C@@H]3CCCC[C@H]32)cc1C(F)(F)F (racemic) [Example 9, Trans-6-(3-(4-cyano-3-(trifluoromethyl)phenyl)-2-oxooctahydro-1H-benzo[c]imidazol-1-yl) pyridine-2-sulfonamide (±)] | > 10000 |
| N#Cc1ccc(N2C(=O)N(c3ccnc(F)c3)[C@@H]3CCCC[C@H]32)cc1C(F)(F)F (racemic) [Example 10, Trans-4-(3-(2-fluoropyridin-4-yl)-2-oxooctahydro-1H-benzo[d]imidazol-1-yl)-2-(trifluoromethyl)benzonitrile (±)] | 365 |
| N#Cc1ccc(N2C(=O)N(c3ccnc(C(F)(F)F)c3)[C@@H]3CCCC[C@H]32)cc1C(F)(F)F (racemic) [Example 11, Trans-4-(2-oxo-3-(2-(trifluoromethyl)pyridin-4-yl)octahydro-1H-benzo[d]imidazol-1-yl)-2-(trifluoromethyl)benzonitrile (±)] | 1240 |
| CC(=O)Nc1ccc(N2C(=O)N(c3ccc(C#N)c(C(F)(F)F)c3)[C@@H]3CCCC[C@H]32)cc1F (racemic) [Example 12] | 533 |
| CC(=O)N(C)c1ccc(N2C(=O)N(c3ccc(C#N)c(C(F)(F)F)c3)[C@@H]3CCCC[C@H]32)cc1F (racemic) [Example 13, Trans-N-(4-(3-(4-cyano-3-(trifluoromethyl)phenyl)-2-oxooctahydro-1H-benzo[d]imidazol-1-yl)-2-fluorophenyl)-N-methylacetamide (±)] | 1050 |
| CNc1ccc(N2C(=O)N(c3ccc(C#N)c(C(F)(F)F)c3)[C@@H]3CCCC[C@H]32)cc1F (racemic) [Example 14, Trans-4-(3-(3-fluoro-4-(methylamino)phenyl)-2-oxooctahydro-1H-benzo[d]im-idazol-1-yl)-2-(trifluoromethyl)benzonitrile (±)] | 715 |
| N#Cc1ccc(N2C(=O)N(c3ccc(N)c(F)c3)[C@@H]3CCCC[C@H]32)cc1C(F)(F)F (racemic) [Example 15, Trans-(4-(-3-(4-amino-3-fluorophenyl)-2-oxooctahydro-1H-benzo[d]imidazol-1-yl)-2-(trifluoromethyl)benzonitrile (±)] | 823 |
| CS(=O)(=O)Nc1ccc(N2C(=O)N(c3ccc(C#N)c(C(F)(F)F)c3)[C@@H]3CCCC[C@H]32)cc1F (racemic) [Example 16, Trans-N-(4-(3-(4-cyano-3-(trifluoromethyl)phenyl)-2-oxooctahydro-1H-benzo[d]imidazol-1-yl)-2-fluorophenyl)methanesulfonamide (±)] | 2450 |
| N#Cc1ccc(N2C(=O)N(c3ccc(C(=O)O)c(F)c3)[C@@H]3CCCC[C@H]32)cc1C(F)(F)F (racemic) [Example 17, Trans-4-(3-(4-cyano-3-(trifluoromethyl)phenyl)-2-oxooctahydro-1H-benzo[d]im-idazol-1-yl)-2-fluorobenzoic acid (±)] | > 10000 |
| CONC(=O)c1ccc(N2C(=O)N(c3ccc(C#N)c(C(F)(F)F)c3)[C@@H]3CCCC[C@H]32)cc1F (racemic) [Example 18, Trans-4-(3-(4-cyano-3-(trifluoromethyl)phenyl)-2-oxooctahydro-1H-benzo[d]im-idazol-1-yl)-2-fluoro-N-methoxybenzamide (±)] | 374 |
| N#Cc1ccc(N2C(=O)N(c3ccc(C(=O)NOCC4CC4)c(F)c3)[C@@H]3CCCC[C@H]32)cc1C(F)(F)F (racemic) [Example 19, Trans-4-(3-(4-cyano-3-(trifluoromethyl)phenyl)-2-oxooctahydro-1H-benzo[d]im-idazol-1-yl)-N-(cyclopropylmethoxy)-2-fluorobenzamide (±)] | 233 |
| COCCONC(=O)c1ccc(N2C(=O)N(c3ccc(C#N)c(C(F)(F)F)c3)[C@@H]3CCCC[C@H]32)cc1F (racemic) [Example 20, Trans-4-(3-(4-cyano-3-(trifluoromethyl)phenyl)-2-oxooctahydro-1H-benzo[d]im-idazol-1-yl)-2-fluoro-N-(2-methoxyethoxy)benzamide (±)] | 322 |
| N#Cc1ccc(N2C(=O)N(c3ccc(C(=O)NOCC4CCC4)c(F)c3)[C@@H]3CCCC[C@H]32)cc1C(F)(F)F (racemic) [Example 21, Trans-4-(3-(4-cyano-3-(trifluoromethyl)phenyl)-2-oxooctahydro-1H-benzo[c]im-idazol-1-yl)-N-(cyclobutylmethoxy)-2-fluorobenzamide (±)] | 255 |
| CC(C)CONC(=O)c1ccc(N2C(=O)N(c3ccc(C#N)c(C(F)(F)F)c3)[C@@H]3CCCC[C@H]32)cc1F (racemic) [Example 22, Trans-4-(3-(4-cyano-3-(trifluoromethyl)phenyl)-2-oxooctahydro-1H-benzo[d]im-idazol-1-yl)-2-fluoro-N-isobutoxybenzamide (±)] | 196 |
| CC(CO)ONC(=O)c1ccc(N2C(=O)N(c3ccc(C#N)c(C(F)(F)F)c3)[C@@H]3CCCC[C@H]32)cc1F (mixture of isomers) [Example 24, Trans-4-(3-(4-cyano-3-(trifluoromethyl)phenyl)-2-oxooctahydro-1H-benzo[c]im-idazol-1-yl)-2-fluoro-N-((1-hydroxypropan-2-yl)oxy)benzamide (±)] | 1520 |

Same assay, conditions: in the presence of 0.2 nM DHT, XTT readout on Day 10, IC50 curves from 8 concentrations

| Compound | IC50 [nM] |
| --- | --- |
| 4-((3aS,7aS)-3-(4-cyano-3-(trifluoromethyl)phenyl)-2-oxooctahydro-1H-benzo[d]imidazol-1-yl)-2-fluoro-N—((S)-tetrahydrofuran-3-yl)benzamide and 4-((3aS,7aS)-3-(4-cyano-3-(trifluoromethyl)phenyl)-2-oxooctahydro-1H-benzo[c]imidazol-1-yl)-2-fluoro-N—((R)-tetrahydrofuran-3-yl)benzamide [Example 35] | 236 |
| CC(COC(C)(C)C)ONC(=O)c1ccc(N2C(=O)N(c3ccc(C#N)c(C(F)(F)F)c3)[C@@H]3CCCC[C@H]32)cc1F (mixture of isomers) [Example 23, Trans-N-((1-(tert-butoxy)propan-2-yl)oxy)-4-(3-(4-cyano-3-(trifluoromethyl)phenyl)-2-oxooctahydro-1H-benzo[d]imidazol-1-yl)-2-fluorobenzamide (±)] | > 10000 |

Reference: US20140329858A1, “Cyclic Urea Derivatives As Androgen Receptor Antagonists” (priority 2011, published 2014)
